According to ChEMBL document CHEMBL1151807, “Myxotyrosides A and B, Unusual rhamnosides from Myxococcus sp” (J Nat Prod, 2009):
Active and inactive are the calls of the source. No cut-off for these calls is given here.

Columns and labels:
Type in all cases: functional, organism-based
Escherichia coli [1] = test: Quorum sensing activity in Escherichia coli MT102 harbouring pSB403 assessed as activation of acyl-homoserinlactone-related signaling at 0 to 1000 nM after 4 hrs by fluorescence assay
Pseudomonas putida [2] = test: Quorum sensing activity in Pseudomonas putida F117 pKR-C12 assessed as activation of acyl-homoserinlactone-related signaling at 10 ul after 24 hrs by thin-layer chromatography
Pseudomonas putida [3] = test: Quorum sensing activity in Pseudomonas putida F117 pAS-C8 assessed as activation of acyl-homoserinlactone-related signaling at 0 to 1000 nM after 4 hrs by fluorescence assay
[4] = system: Chromobacterium violaceum; test: Quorum sensing activity in Chromobacterium violaceum assessed as activation of acyl-homoserinlactone-related signaling at 0 to 1000 nM after 4 hrs by fluorescence assay
Escherichia coli [5] = test: Inhibition of acyl-homoserinlactone-related quorum sensing activity in Escherichia coli MT102 harbouring pSB403 at 0 to 1000 nM after 4 hrs by fluorescence assay
Pseudomonas putida [6] = test: Inhibition of acyl-homoserinlactone-related quorum sensing activity in Pseudomonas putida F117 pKR-C12 at 10 ul after 24 hrs by thin-layer chromatography
Pseudomonas putida [7] = test: Inhibition of acyl-homoserinlactone-related quorum sensing activity in Pseudomonas putida F117 pAS-C8 at 0 to 1000 nM after 4 hrs by fluorescence assay
[8] = system: Chromobacterium violaceum; test: Inhibition of acyl-homoserinlactone-related quorum sensing activity in Chromobacterium violaceum at 0 to 1000 nM after 4 hrs by fluorescence assay
[9] = system: Myxococcus xanthus DK 1622; test: Inhibition of Myxococcus xanthus DK 1622 growth at 0.5 mg after 72 hrs by agar diffusion assay
Priestia megaterium = test: Antimicrobial activity against Bacillus megaterium at 50 ug/disk by disk diffusion assay
Escherichia coli [10] = test: Antimicrobial activity against Escherichia coli at 50 ug/disk by disk diffusion assay
Aspergillus ruber = test: Antimicrobial activity against Eurotium rubrum at 50 ug/disk by disk diffusion assay
Microbotryum violaceum = test: Antimicrobial activity against Microbotryum violaceum at 50 ug/disk by disk diffusion assay
Mycotypha microspora = test: Antimicrobial activity against Mycotypha microspora at 50 ug/disk by disk diffusion assay
[Chlorella] fusca = Antimicrobial activity against Chlorella fusca at 50 ug/disk by disk diffusion assay; conditions: Scenedesmus fuscus
Plasmodium falciparum = test: Antiplasmodial activity against Plasmodium falciparum

## CCCCCCCCCCCCC/C=C\C(=O)N/C=C\c1ccc(O[C@@H]2O[C@@H](C)[C@H](O)[C@@H](O)[C@H]2O)cc1
Escherichia coli [1]
  Activity: inactive
Pseudomonas putida [2]
  Activity: inactive
Pseudomonas putida [3]
  Activity: inactive
[4]
  Activity: inactive
Escherichia coli [5]
  Activity: Active
Pseudomonas putida [6]
  Activity: Active
Pseudomonas putida [7]
  Activity: Active
[8]
  Activity: Active
[9]
  Activity: inactive

## CC(C)CCCCCCCCCCC/C=C\C(=O)N/C=C\c1ccc(O[C@@H]2O[C@@H](C)[C@H](O)[C@@H](O)[C@H]2O)cc1 [MYXOTYROSIDE A]
Priestia megaterium
  Activity: inactive
Escherichia coli [10]
  Activity: inactive
Aspergillus ruber
  Activity: inactive
Microbotryum violaceum
  Activity: inactive
Mycotypha microspora
  Activity: inactive
[Chlorella] fusca
  Activity: inactive
Plasmodium falciparum
  IC50: 7 µM
Escherichia coli [1]
  Activity: inactive
Pseudomonas putida [2]
  Activity: inactive
Pseudomonas putida [3]
  Activity: inactive
[4]
  Activity: inactive
Escherichia coli [5]
  Activity: Active
Pseudomonas putida [6]
  Activity: Active
Pseudomonas putida [7]
  Activity: Active
[8]
  Activity: Active
[9]
  Activity: inactive
